Laboratory results published in patent US6350766B1, “Dihydropyridine derivative” (Ajinomoto Co., Inc., priority 1997, dated 2002).

Columns and labels:
N-type calcium channel = target: T1, N-type calcium channel (Rattus norvegicus, UniProt Q02294); assay: Inhibition of N-type calcium channel: calcium currents in cells of maxillary sympathetic ganglions of rats, whole cell voltage clamp; assay type: cell-based; settings: rat maxillary sympathetic ganglion cells, depolarization from -60 mV to 0 mV, barium as charge carrier
T1 construct: from tissue; host or cells: freshly dissociated sympathetic ganglion cells of Wistar rats (2 to 4 weeks old)
T1 sequence (Q02294 whole entry): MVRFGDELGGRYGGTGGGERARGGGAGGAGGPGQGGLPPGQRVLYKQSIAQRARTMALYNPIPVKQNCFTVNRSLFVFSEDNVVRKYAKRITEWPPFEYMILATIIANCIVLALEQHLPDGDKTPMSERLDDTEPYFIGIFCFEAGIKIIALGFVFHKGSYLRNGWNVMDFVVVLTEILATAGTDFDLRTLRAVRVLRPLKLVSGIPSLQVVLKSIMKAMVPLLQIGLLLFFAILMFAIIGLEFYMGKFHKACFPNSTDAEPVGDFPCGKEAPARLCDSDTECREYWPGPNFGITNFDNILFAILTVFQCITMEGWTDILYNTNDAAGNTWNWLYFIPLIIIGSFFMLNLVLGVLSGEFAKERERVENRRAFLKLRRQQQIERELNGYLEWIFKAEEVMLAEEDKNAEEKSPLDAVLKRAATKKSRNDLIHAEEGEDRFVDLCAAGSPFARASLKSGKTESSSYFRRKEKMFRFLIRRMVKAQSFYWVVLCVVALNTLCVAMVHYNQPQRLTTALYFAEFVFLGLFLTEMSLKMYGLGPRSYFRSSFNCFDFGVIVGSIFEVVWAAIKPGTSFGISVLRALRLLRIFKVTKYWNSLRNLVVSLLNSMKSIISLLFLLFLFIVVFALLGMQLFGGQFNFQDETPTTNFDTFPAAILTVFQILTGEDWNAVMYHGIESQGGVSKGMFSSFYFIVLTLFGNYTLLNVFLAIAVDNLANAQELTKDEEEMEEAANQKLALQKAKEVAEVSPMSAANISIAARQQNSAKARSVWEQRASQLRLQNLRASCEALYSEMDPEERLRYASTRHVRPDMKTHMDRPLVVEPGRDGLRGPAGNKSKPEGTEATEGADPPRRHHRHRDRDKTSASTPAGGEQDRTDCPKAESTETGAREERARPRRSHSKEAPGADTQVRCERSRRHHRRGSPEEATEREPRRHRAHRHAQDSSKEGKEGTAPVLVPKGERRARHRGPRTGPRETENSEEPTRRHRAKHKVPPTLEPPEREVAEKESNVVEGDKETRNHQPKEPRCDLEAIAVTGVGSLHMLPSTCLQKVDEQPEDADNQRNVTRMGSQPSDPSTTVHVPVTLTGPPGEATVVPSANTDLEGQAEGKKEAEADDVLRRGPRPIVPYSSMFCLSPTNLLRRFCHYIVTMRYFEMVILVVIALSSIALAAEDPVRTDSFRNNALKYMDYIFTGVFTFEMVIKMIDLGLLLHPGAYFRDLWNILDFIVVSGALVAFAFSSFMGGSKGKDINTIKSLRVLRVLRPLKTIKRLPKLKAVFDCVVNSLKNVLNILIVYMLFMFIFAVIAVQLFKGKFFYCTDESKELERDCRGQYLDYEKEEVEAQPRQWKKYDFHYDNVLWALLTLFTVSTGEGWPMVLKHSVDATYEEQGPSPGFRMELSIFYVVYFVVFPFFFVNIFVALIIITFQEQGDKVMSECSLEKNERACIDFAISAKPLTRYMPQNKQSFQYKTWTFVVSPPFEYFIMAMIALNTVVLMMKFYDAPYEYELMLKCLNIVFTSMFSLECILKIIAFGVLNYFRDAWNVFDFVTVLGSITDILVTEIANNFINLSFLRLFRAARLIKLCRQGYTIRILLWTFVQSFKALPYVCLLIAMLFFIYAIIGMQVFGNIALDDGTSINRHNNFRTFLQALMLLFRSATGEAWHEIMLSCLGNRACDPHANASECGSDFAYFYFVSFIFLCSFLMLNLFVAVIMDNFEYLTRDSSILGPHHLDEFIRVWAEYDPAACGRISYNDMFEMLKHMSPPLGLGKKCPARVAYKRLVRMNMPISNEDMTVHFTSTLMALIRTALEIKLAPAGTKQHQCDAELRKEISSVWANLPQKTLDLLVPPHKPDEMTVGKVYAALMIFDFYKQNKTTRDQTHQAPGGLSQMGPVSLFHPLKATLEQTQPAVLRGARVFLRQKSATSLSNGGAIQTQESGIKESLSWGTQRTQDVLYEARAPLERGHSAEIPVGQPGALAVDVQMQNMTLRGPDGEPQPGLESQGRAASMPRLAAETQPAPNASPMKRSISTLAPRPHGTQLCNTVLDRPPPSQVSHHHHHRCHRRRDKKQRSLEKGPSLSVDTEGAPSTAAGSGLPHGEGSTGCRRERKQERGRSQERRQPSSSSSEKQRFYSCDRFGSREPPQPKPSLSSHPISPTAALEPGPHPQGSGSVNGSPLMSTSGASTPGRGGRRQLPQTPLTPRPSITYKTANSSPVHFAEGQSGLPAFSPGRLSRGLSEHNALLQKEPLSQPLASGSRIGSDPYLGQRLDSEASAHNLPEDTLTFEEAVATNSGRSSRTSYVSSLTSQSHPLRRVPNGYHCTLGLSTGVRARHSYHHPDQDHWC
T1 sequence (P54287 whole entry partner): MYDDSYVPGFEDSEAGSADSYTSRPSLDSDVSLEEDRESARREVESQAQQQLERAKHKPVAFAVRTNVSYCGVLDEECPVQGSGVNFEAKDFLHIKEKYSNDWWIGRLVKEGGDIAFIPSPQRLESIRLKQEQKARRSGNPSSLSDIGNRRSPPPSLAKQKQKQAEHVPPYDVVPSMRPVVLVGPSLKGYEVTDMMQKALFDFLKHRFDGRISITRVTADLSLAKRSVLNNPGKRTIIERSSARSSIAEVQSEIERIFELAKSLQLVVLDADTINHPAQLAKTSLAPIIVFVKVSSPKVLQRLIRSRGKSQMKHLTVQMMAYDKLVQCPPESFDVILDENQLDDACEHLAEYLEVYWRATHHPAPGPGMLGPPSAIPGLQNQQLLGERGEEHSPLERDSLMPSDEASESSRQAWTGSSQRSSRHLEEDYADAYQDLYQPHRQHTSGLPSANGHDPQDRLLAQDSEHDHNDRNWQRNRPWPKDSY
T1 sequence (P54290 25-944 partner limits assumed): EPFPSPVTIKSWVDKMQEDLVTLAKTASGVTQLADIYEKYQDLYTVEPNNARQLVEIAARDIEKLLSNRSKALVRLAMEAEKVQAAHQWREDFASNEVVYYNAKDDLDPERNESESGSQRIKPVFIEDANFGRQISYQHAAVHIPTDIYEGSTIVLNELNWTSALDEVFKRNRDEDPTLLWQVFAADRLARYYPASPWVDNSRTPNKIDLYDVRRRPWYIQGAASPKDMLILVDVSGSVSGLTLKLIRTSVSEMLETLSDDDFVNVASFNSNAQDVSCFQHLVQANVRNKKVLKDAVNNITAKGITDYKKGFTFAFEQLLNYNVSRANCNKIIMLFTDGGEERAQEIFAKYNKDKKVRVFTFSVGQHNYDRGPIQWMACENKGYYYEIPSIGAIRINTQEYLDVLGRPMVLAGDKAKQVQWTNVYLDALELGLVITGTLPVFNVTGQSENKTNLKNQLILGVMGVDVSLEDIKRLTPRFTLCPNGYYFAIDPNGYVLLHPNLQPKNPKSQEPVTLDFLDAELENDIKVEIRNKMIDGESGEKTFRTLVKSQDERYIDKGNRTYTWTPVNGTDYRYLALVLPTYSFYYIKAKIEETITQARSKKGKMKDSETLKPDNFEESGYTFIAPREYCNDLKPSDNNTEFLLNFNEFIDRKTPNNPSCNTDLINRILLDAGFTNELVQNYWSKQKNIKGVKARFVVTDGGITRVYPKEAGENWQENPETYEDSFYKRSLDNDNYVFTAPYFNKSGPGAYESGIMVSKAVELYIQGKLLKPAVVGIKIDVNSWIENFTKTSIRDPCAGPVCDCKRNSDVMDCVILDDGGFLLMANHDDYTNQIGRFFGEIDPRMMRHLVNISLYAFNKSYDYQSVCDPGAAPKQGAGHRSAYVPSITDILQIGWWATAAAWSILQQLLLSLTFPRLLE
T1 sequence (P54290 945-1091 partner limits assumed): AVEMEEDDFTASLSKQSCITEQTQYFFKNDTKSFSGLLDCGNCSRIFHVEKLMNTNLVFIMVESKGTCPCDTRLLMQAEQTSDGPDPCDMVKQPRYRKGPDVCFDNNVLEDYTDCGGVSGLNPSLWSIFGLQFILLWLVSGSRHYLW
Description: (Test Examples) Inhibition activity of N-type calcium channel:
1) Preparation of cells of maxillary sympathetic ganglions of rats:
The cervix of each of Wistar rats (2 to 4 weeks old) was opened to expose the maxillary ganglions under anesthesia with pentobarbital. A pair of the ganglions were removed and immediately washed with Ca^2+-free Tyrode solution cooled with ice. Each ganglion was cut into 3 or 4 pieces and kept in the Ca^2+-free Tyrode solution for 15 minutes. Then, these pieces were treated with papain [Washington Biochemicals (lot#35J557); 20 U/ml] and then with a mixture of type-2 collagenase [Washington Biochemicals (CLS2); 5900 U/ml] and dispase [Calbiochem (lot#1312973); 16 mg/ml] for one hour. After enzymatic treatment, the ganglion cells were mechanically isolated by pipetting. The isolated ganglion cells were used for the experiments within 6 hours.
2) Determination of calcium electric current:
The calcium electric current was determined by the whole cell voltage clamp method under the fixed membrane potential. The pipette electrode was pulled from glass tube (inner diameter: 1.5 mm; Narishige) in two stage of a vertical pipette puller (PB-7; Narishige). The ionic current was amplified with a patch amplifier (CEZ-2300; Nihon Kohden Corporation). The noises were cut at 10 kHz (E-3201B, NF Electronic Instrument) and then the ionic current was monitored on a storage oscilloscope (DS-9121, Iwatsu) and, at the same time, recorded with a DAT data recorder (RD-120TE, TEAC). Then it was passed through a 1 kHz filter and recorded in a computer (Compaq DeskPro) with PCLAMP software (Axon Instrument) of 3 kHz. All the experiments were performed at room temperature (25±2° C.). In the measurement of current through the calcium channel, 10 mM barium (composition of the solution: shown below) was used in place of calcium as the charge carrier. The transmission of barium through the calcium channel was better than that of calcium in the sympathetic ganglion cells, and the calcium-dependent channel inactivation was slight when barium was used.
The test compounds were rapidly administered by Y-tube method by Murase et al. [Brain Res. 525, 84 (1990)]. Each compound was dissolved in DMSO, preparing 10 mM mother solution. At the highest drug concentration used, the vehicle (0.1%) had no significant effect on the calcium current.
2) Composition of Normal Tyrode's solution: NaCl; 143, KCl; 4, MgCl2; 0.5; CaCl2; 1.8, glucose; 5.5, NaH2PO4; 0.33, HEPES; 5 (Mm). The pH was adjusted to 7.4 with tris-OH. Composition of Ca-free Tyrode's solution: the same as that of the Normal Tyrode's solution except that it was free of CaCl2.
External solution for the determination of calcium electric current (mM): TEACL; 144, CsCl; 4, BaCl2; […], MgCl2; 0.53, glucose: 5.5, HEPES; 5 (pH 7.4)
Solution in patch electrode: CsCl; 140, MgCl2; 5, CaCl2; 0.28, HEPES; 10 (pH 7.2), EGTA; 5 (pH 7.2).
The electric current was induced by the depolarization for 50 ms, from the holding potential of −60 mV to the test potential of 0 mV. This test potential was the peak in the current/voltage relationship, and the inhibition effect was examined at this point at which the error by the drift of the holding potential was reduced. As Tsein et al. reported, the maxillary ganglion cells were substantially free of L-type component (not more than 5%), and at least 85% thereof comprised the N-type component. […] The inhibition activity of the dihydropyridine derivatives (1 uM) thus determined was 10 to 70%.

L-type calcium channel = L-type calcium channel inhibition

CC1=C(C#N)C(c2cccc(Cl)c2)C(C(=O)OC/C=C/c2ccccc2)=C(C)N1 (stereo not drawn) [Example 9, (3-phenyl-2-propene-1-yl) 4-(3-chlorophenyl) -5-cyano-2,6-dimethyl-1,4-dihydropyridine-3-carboxylate]
inhibition at 0.1 µM (N-type calcium channel): 21.3%
IC50 (L-type calcium channel): 82 nM
L-type inhibition 100 nM (%) (L-type calcium channel): 56%

CC1=C(C(=O)O)C(c2cccc(C#N)c2)C(C(=O)OC/C=C/c2ccccc2)=C(C)N1 (stereo not drawn) [Example 3, mono(3-phenyl-2-propene-1-yl) 4-(3-cyanophenyl)-2,6-dimethyl-1,4-dihydropyridine-3,5-dicarboxylate]
inhibition at 0.1 µM (N-type calcium channel): 47.5%
IC50 (L-type calcium channel): 6.3 nM
L-type inhibition 100 nM (%) (L-type calcium channel): 98%

CC1=C(C(=O)O)C(c2cccc(Cl)c2)C(C(=O)OCC(=O)Nc2ccccc2)=C(C)N1 (stereo not drawn) [Example 14, mono(phenylcarbamoylmethyl) 4-(3-chlorophenyl)-2,6-dimethyl-1,4-dihydropyridine-3,5-dicarboxylate]
inhibition at 0.1 µM (N-type calcium channel): 28.6%
IC50 (L-type calcium channel): 50 nM
L-type inhibition 100 nM (%) (L-type calcium channel): 70%

CC1=C(C(N)=O)C(c2cccc(Cl)c2)C(C(=O)OC/C=C/c2ccccc2)=C(C)N1 (stereo not drawn) [Example 8, (3-phenyl-2-propene-1-yl) 5-carbamoyl-4-(3-chlorophenyl) -2,6-dimethyl-1,4-dihydropyridine-3-carboxylate]
inhibition at 0.1 µM (N-type calcium channel): 31.4%
IC50 (L-type calcium channel): 32 nM
L-type inhibition 100 nM (%) (L-type calcium channel): 75%

COc1cccc(C2C(C(=O)O)=C(C)NC(C)=C2C(=O)OC/C=C/c2ccccc2)c1 (stereo not drawn) [Example 20, mono(3-phenyl-2-propene-1-yl) 4-(3-methoxyphenyl)-2,6-dimethyl-1,4-dihydropyridine-3,5-dicarboxylate]
inhibition at 0.1 µM (N-type calcium channel): 24.3%
IC50 (L-type calcium channel): 250 nM
L-type inhibition 100 nM (%) (L-type calcium channel): 38%
